Results on 15 compounds are retold here after PubChem BioAssay (NCI).

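Five concentrations, 48 hours, 96-well plates. GI50: concentration for 50% inhibition of growth. TGI denotes the concentration required for complete inhibition of growth.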 Bounds are passed on as bounds.

Some test systems named below: SR leukemia; A549 NSCLC; MCF7 breast; PC-3 prostate; SNB-75 CNS; EKVX NSCLC; MDA-N; SNB-19 CNS; HOP-92 NSCLC; HL-60(TB) leukemia.
What all share (assay): inhibition of tumour cell growth, NCI panel, 48 h

Consider `COc1ccc(CNc2cc(=O)n(C)c(=O)[nH]2)cc1`, for which the TGI with SR leukemia, in the experiment on A549 NSCLC, with MCF7 breast, in the experiment on PC-3 prostate, in the experiment on SNB-75 CNS and in the experiment with EKVX NSCLC was greater than 100 µM in each case. The TGI in the experiment on MDA-N, with SNB-19 CNS and with HOP-92 NSCLC was greater than 100 µM throughout.
Turning to `CCCCNc1nc(NC2OCC(OC(C)=O)C(OC(C)=O)C2OC(C)=O)c(N=O)c(=O)n1C` (stereo unspecified), the TGI in the experiment on SR leukemia, in the experiment with A549 NSCLC, in the experiment on MCF7 breast, in the experiment with PC-3 prostate, in the experiment on SNB-75 CNS and in the experiment on EKVX NSCLC was greater than 10 µM each time. Further, the TGI in the experiment with SNB-19 CNS, in the experiment with HL-60(TB) leukemia and in the experiment on HOP-92 NSCLC was greater than 10 µM in each case.
Consider `COc1cccc(C2c3cc4c(cc3OC3COC(=O)C32)OCO4)c1OC` (stereo unspecified), for which the TGI in the experiment on A549 NSCLC, in the experiment with MCF7 breast, in the experiment on PC-3 prostate, with SNB-75 CNS, in the experiment on EKVX NSCLC and in the experiment on MDA-N was greater than 100 µM in each case. For the same compound, the TGI in the experiment on SNB-19 CNS, with HL-60(TB) leukemia and in the experiment with HOP-92 NSCLC was greater than 100 µM each time.
Consider `COc1ccc(Nc2ccc([N+](=O)[O-])cc2[N+](=O)[O-])cc1CN(CCCl)CCCl`, for which the GI50 in the experiment with SR leukemia is 0.378 µM; in the experiment with A549 NSCLC, 4.43 µM; in the experiment on MCF7 breast, 1.49 µM; in the experiment with PC-3 prostate it was 2.04 µM; in the experiment on SNB-75 CNS it was 2.39 µM; in the experiment with SNB-19 CNS, 3.22 µM. The figures for the GI50 in the experiment on HL-60(TB) leukemia and in the experiment on HOP-92 NSCLC were 1.88 µM and 1.99 µM, respectively. The TGI in the experiment with SR leukemia was 79.5 µM; with A549 NSCLC it was 30.7 µM; in the experiment on MCF7 breast, 13.3 µM; in the experiment with PC-3 prostate it was 9.59 µM; in the experiment on SNB-75 CNS, 13.4 µM; in the experiment with SNB-19 CNS, 25 µM. Further, the TGI came out at 7.26 µM in the experiment with HL-60(TB) leukemia and 5.47 µM in the experiment with HOP-92 NSCLC.
For `CN1CCN(c2ccc3c(c2)NCC(=O)N3)CC1`, the TGI in the experiment on SR leukemia, in the experiment with A549 NSCLC, in the experiment with PC-3 prostate, in the experiment on SNB-75 CNS, with EKVX NSCLC and in the experiment on SNB-19 CNS was greater than 100 µM each time. Also, the TGI in the experiment with HL-60(TB) leukemia and in the experiment on HOP-92 NSCLC was greater than 100 µM throughout.
`O=C(c1ccccc1)c1c(CC(O)c2ccncc2)n(C(=O)c2ccccc2)c2ccccc12` (stereo unspecified): the TGI is 39.5 µM in the experiment with SR leukemia; 52.8 µM with A549 NSCLC; 41.4 µM in the experiment with SNB-75 CNS; 73.1 µM with SNB-19 CNS; 39.9 µM in the experiment on HL-60(TB) leukemia; 29.4 µM in the experiment with HOP-92 NSCLC.
Consider `O=C1c2ccccc2N2OC3(N4CCCC4)CCCCC3C12c1ccccc1` (stereo unspecified), for which the TGI with SR leukemia was greater than 100 µM; with A549 NSCLC, 52.1 µM; in the experiment with SNB-75 CNS, greater than 100 µM; with EKVX NSCLC, greater than 100 µM; with SNB-19 CNS, greater than 100 µM; with HL-60(TB) leukemia, 53.7 µM. In the experiment on HOP-92 NSCLC, this compound returned a TGI of 29.7 µM.
On to `NC(Cc1ccc(S(=O)(=O)O)cc1)C(=O)NC(Cc1ccc(S(=O)(=O)O)cc1)C(=O)NC(Cc1ccc(S(=O)(=O)O)cc1)C(=O)NC(Cc1ccc(S(=O)(=O)O)cc1)C(=O)O` (stereo unspecified), for which the TGI with A549 NSCLC, with MCF7 breast, with PC-3 prostate, with SNB-75 CNS, in the experiment on EKVX NSCLC and in the experiment with MDA-N was greater than 100 µM in each case.
Consider `Nc1ncnc2c1ncn2[C@@H]1O[C@H](COC(c2ccccc2)(c2ccccc2)c2ccccc2)[C@@H](OC(=S)Oc2ccccc2)[C@@H]1F`, for which the TGI in the experiment with SR leukemia amounted to 8.24 µM; in the experiment on A549 NSCLC, 43.7 µM; with MCF7 breast, 14.9 µM; with PC-3 prostate, 15.2 µM; with SNB-75 CNS, 32.6 µM; in the experiment on EKVX NSCLC it was 26.6 µM. In addition, the TGI is 27.7 µM in the experiment with SNB-19 CNS, 13.3 µM in the experiment on HL-60(TB) leukemia and 28.6 µM with HOP-92 NSCLC.
In the case of `CCN(CCN(CC)C(=O)Nc1ccccc1)C(=O)Nc1ccccc1`, the TGI in the experiment with SR leukemia, in the experiment with A549 NSCLC, in the experiment on MCF7 breast, in the experiment on PC-3 prostate, in the experiment with SNB-75 CNS and in the experiment on EKVX NSCLC was greater than 100 µM each time. The TGI with SNB-19 CNS, with HL-60(TB) leukemia and in the experiment on HOP-92 NSCLC was greater than 100 µM in each case.
As for `COC(=O)C(=O)Cc1nc2ccccc2o1`, the TGI with SR leukemia, in the experiment with SNB-75 CNS, with EKVX NSCLC, in the experiment on SNB-19 CNS and with HL-60(TB) leukemia was greater than 100 µM each time.
Take `CCCn1c(=O)c(N2CCN(c3ccccc3)CC2)nc2sc3ccccc3c21`: the TGI with A549 NSCLC, with MCF7 breast, in the experiment on PC-3 prostate, with SNB-75 CNS, with EKVX NSCLC and in the experiment on MDA-N was greater than 100 µM in each case. The TGI in the experiment with SNB-19 CNS, in the experiment on HL-60(TB) leukemia and in the experiment with HOP-92 NSCLC was greater than 100 µM in each case.
For `CCCCCCCCCCCC[N+](CCCCCCCCCCCC)=C1SCCS1`, the TGI with SR leukemia came to 15.2 µM; in the experiment on A549 NSCLC it was 18 µM; in the experiment with SNB-75 CNS, 30 µM; with EKVX NSCLC, 26 µM; in the experiment with HL-60(TB) leukemia, 12.1 µM; in the experiment on HOP-92 NSCLC, 23.1 µM.
As for `O=C1NC2CCCCCC2C12CCCCC2` (stereo unspecified), the TGI in the experiment on SR leukemia, in the experiment with A549 NSCLC, in the experiment on SNB-75 CNS, in the experiment on EKVX NSCLC, with SNB-19 CNS and in the experiment on HL-60(TB) leukemia was greater than 100 µM in each case.
As to `CCOC(=O)c1c[nH]c2ccc3c(c2c1=O)S(=O)(=O)CC3` (tested in a mixture with another compound), the TGI in the experiment with A549 NSCLC, in the experiment on MCF7 breast, with SNB-75 CNS, with EKVX NSCLC, with SNB-19 CNS and with HL-60(TB) leukemia was greater than 100 µM in each case. The TGI in the experiment on HOP-92 NSCLC was greater than 100 µM.
